Among the data in patent US12139499B2, “Heteroaryl compounds for treating Huntington's disease” (PTC THERAPEUTICS, INC., priority 2018, dated 2024) are IC50 values, retold here.

SMILES strings stand for the structures. pIC50: −log10 of the molar value.

The test concerns Endogenous Huntingtin Protein. Kind of test: Endogenous Huntingtin Protein Assay (ELISA-based MSD electrochemiluminescence). Particulars: Table 1. Type of test: cell-based. The method in brief:
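Sandwich MSD electrochemiluminescence immunoassay. Capture used MW1 (expanded polyglutamine) or MAB2166 antibody coated at 1 μg/mL overnight at 4 °C. Samples were bound overnight at 4 °C, then a rabbit monoclonal detection antibody and SULFO-TAG anti-rabbit, each at 0.25 μg/mL, were applied for 1 h at room temperature.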
A general note: ELISA stands for enzyme-linked immunosorbent assay.

With `Oc1cc(-c2cn[nH]c2)ccc1-c1cc2sc(N3CC[C@H]4CCNC[C@H]43)nc2nn1` [Compound 362, 2-{6-[(3aR,7aS)-octahydro-1H-pyrrolo[2,3-c]pyridin-1-yl][1,3]thiazolo[4,5-c]pyridazin-3-yl}-5-(1H-pyrazol-4-yl)phenol], the pIC50 was at least 7.00.
For `Oc1cc(-c2cn[nH]c2)ccc1-c1cc2sc(N3CCC34CCCNC4)nc2nn1` (centres unmarked) [Compound 363, 2-[6-(1,6-diazaspiro[3.5]nonan-1-yl)[1,3]thiazolo[4,5-c]pyridazin-3-yl]-5-(1H-pyrazol-4-yl)phenol], the pIC50 is at least 7.00.
Compound `CN(C)[C@H]1C[C@@H](N(C)c2nc3nnc(-c4ccc(-c5cn[nH]c5)cc4O)cc3s2)C1` [Compound 364, 2-(6-{[(1s,3s)-3-(dimethylamino)cyclobutyl](methyl)amino}[1,3]thiazolo[4,5-c]pyridazin-3-yl)-5-(1H-pyrazol-4-yl)phenol] showed a negative-log IC50 (pIC50) of 5.52 to 6.00.
On to `CN(c1nc2nnc(-c3ccc(-c4cn[nH]c4)cc3O)cc2s1)[C@@H]1CCNC[C@H]1F` [Compound 365, 2-(6-{[(3R,4R)-3-fluoropiperidin-4-yl](methyl)amino}[1,3]thiazolo[4,5-c]pyridazin-3-yl)-5-(1H-pyrazol-4-yl)phenol], for which the pIC50 is 6.30 to 7.00.
Consider `CN1CCC(Nc2nc3nnc(-c4ccc(-c5cn[nH]c5)cc4O)cc3s2)CC1` [Compound 366, 2-{6-[(1-methylpiperidin-4-yl)amino][1,3]thiazolo[4,5-c]pyridazin-3-yl}-5-(1H-pyrazol-4-yl)phenol], for which the negative logarithm of the IC50 (pIC50) was at least 7.00.
Compound `Oc1cc(-c2cn[nH]c2)ccc1-c1cc2sc(NC3CCNC3)nc2nn1` (centres unmarked) [Compound 367, 5-(1H-pyrazol-4-yl)-2-{6-[(pyrrolidin-3-yl)amino][1,3]thiazolo[4,5-c]pyridazin-3-yl}phenol] had a pIC50 of 6.30 to 7.00.
To `Oc1cc(-c2c[nH]nc2F)ccc1-c1cc2sc(N3CC4(CNC4)C3)nc2nn1` [Compound 368, 2-[6-(2,6-diazaspiro[3.3]heptan-2-yl)[1,3]thiazolo[4,5-c]pyridazin-3-yl]-5-(3-fluoro-1H-pyrazol-4-yl)phenol] belongs 6.30 to 7.00; to `CN1CC[C@@H]2CCN(c3nc4nnc(-c5ccc(-c6cn[nH]c6)cc5O)cc4s3)[C@@H]2C1` [Compound 369, 2-{6-[(3aR,7aS)-6-methyloctahydro-1H-pyrrolo[2,3-c]pyridin-1-yl][1,3]thiazolo[4,5-c]pyridazin-3-yl}-5-(1H-pyrazol-4-yl)phenol], 6.30 to 7.00.
The compound `CN1CCCC2(CCN2c2nc3nnc(-c4ccc(-c5cn[nH]c5)cc4O)cc3s2)C1` (centres unmarked) [Compound 370, 2-[6-(6-methyl-1,6-diazaspiro[3.5]nonan-1-yl)[1,3]thiazolo[4,5-c]pyridazin-3-yl]-5-(1H-pyrazol-4-yl)phenol] gave a pIC50 of at least 7.00.
`CN(c1nc2nnc(-c3ccc(-c4cn[nH]c4)cc3O)cc2s1)[C@H]1CCN[C@H](CO)C1` [Compound 371, 2-(6-{[(2S,4S)-2-(hydroxymethyl)piperidin-4-yl](methyl)amino}[1,3]thiazolo[4,5-c]pyridazin-3-yl)-5-(1H-pyrazol-4-yl)phenol] gave a pIC50 of at least 7.00.
In turn, `CN1CC[C@H](N(C)c2nc3nnc(-c4ccc(-c5cn[nH]c5)cc4O)cc3s2)C[C@H]1CO` [Compound 372, 2-(6-{[(2S,4S)-2-(hydroxymethyl)-1-methylpiperidin-4-yl](methyl)amino}[1,3]thiazolo[4,5-c]pyridazin-3-yl)-5-(1H-pyrazol-4-yl)phenol] gave a pIC50 of at least 7.00.
In turn, `CN1CCC(Nc2nc3nnc(-c4ccc(-c5cn[nH]c5)cc4O)cc3s2)C1` (centres unmarked) [Compound 373, 2-{6-[(1-methylpyrrolidin-3-yl)amino][1,3]thiazolo[4,5-c]pyridazin-3-yl}-5-(1H-pyrazol-4-yl)phenol] had a pIC50 of at least 7.00.
Consider `CN(c1nc2nnc(-c3ccc(-c4cn[nH]c4)cc3O)cc2s1)C1CCNC1` (centres unmarked) [Compound 374, 2-{6-[methyl(pyrrolidin-3-yl)amino][1,3]thiazolo[4,5-c]pyridazin-3-yl}-5-(1H-pyrazol-4-yl)phenol], for which the pIC50 is at least 7.00.
`CN1CCC(N(C)c2nc3nnc(-c4ccc(-c5cn[nH]c5)cc4O)cc3s2)C1` (centres unmarked) [Compound 375, 2-{6-[methyl(1-methylpyrrolidin-3-yl)amino][1,3]thiazolo[4,5-c]pyridazin-3-yl}-5-(1H-pyrazol-4-yl)phenol] gave a pIC50 of at least 7.00.
`CN[C@H]1C[C@H](N(C)c2nc3nnc(-c4ccc(-c5cn[nH]c5)cc4O)cc3s2)C1` [Compound 376, 2-(6-{methyl[(1r,3r)-3-(methylamino)cyclobutyl]amino}[1,3]thiazolo[4,5-c]pyridazin-3-yl)-5-(1H-pyrazol-4-yl)phenol] had a pIC50 of 6.30 to 7.00.
To `CC1CC(N(C)c2nc3cnc(-c4cc(C#N)c5nn(C)cc5c4)cc3s2)CCN1C` (centres unmarked) [Compound 377, 5-{2-[(1,2-dimethylpiperidin-4-yl)(methyl)amino][1,3]thiazolo[4,5-c]pyridin-6-yl}-2-methyl-2H-indazole-7-carbonitrile] belongs 6.30 to 7.00; to `CC1CC(N(C)c2nc3cnc(-c4cc(F)c5nn(C)cc5c4)cc3s2)CCN1C` (centres unmarked) [Compound 378, N-(1,2-dimethylpiperidin-4-yl)-6-(7-fluoro-2-methyl-2H-indazol-5-yl)-N-methyl[1,3]thiazolo[4,5-c]pyridin-2-amine], 6.30 to 7.00; to `Cc1cn2cc(-c3cc4sc(N(C)C5CCN(C)C(C)C5)nc4cn3)cc(C#N)c2n1` (centres unmarked) [Compound 379, 6-{2-[(1,2-dimethylpiperidin-4-yl)(methyl)amino][1,3]thiazolo[4,5-c]pyridin-6-yl}-2-methylimidazo[1,2-a]pyridine-8-carbonitrile], at least 7.00.
Compound `Cc1cn2cc(-c3cc4sc(N(C)C5CCN(C)C(C)C5)nc4cn3)cc(F)c2n1` (centres unmarked) [Compound 380, N-(1,2-dimethylpiperidin-4-yl)-6-(8-fluoro-2-methylimidazo[1,2-a]pyridin-6-yl)-N-methyl[1,3]thiazolo[4,5-c]pyridin-2-amine] gave a pIC50 of 6.30 to 7.00.
Compound `CN(c1nc2nnc(-c3ccc(-c4cn[nH]c4)cc3O)cc2s1)[C@H]1CNC[C@@H]1F` [Compound 381, 2-(6-{[(3S,4S)-4-fluoropyrrolidin-3-yl](methyl)amino}[1,3]thiazolo[4,5-c]pyridazin-3-yl)-5-(1H-pyrazol-4-yl)phenol] had a pIC50 of 6.30 to 7.00.
The compound `CN1C[C@H](F)[C@@H](N(C)c2nc3nnc(-c4ccc(-c5cn[nH]c5)cc4O)cc3s2)C1` [Compound 382, 2-(6-{[(3S,4S)-4-fluoro-1-methylpyrrolidin-3-yl](methyl)amino}[1,3]thiazolo[4,5-c]pyridazin-3-yl)-5-(1H-pyrazol-4-yl)phenol] showed a pIC50 of 6.30 to 7.00.
As to `CN(c1nc2nnc(-c3ccc(-c4cn[nH]c4)cc3O)cc2s1)C1CCN(C2CC2)CC1` [Compound 383, 2-{6-[(1-cyclopropylpiperidin-4-yl)(methyl)amino][1,3]thiazolo[4,5-c]pyridazin-3-yl}-5-(1H-pyrazol-4-yl)phenol], the pIC50 was at least 7.00.
`CN(c1nc2nnc(-c3ccc(-c4cn[nH]c4)cc3O)cc2s1)C1CCN(CCF)CC1` [Compound 384, 2-(6-{[1-(2-fluoroethyl)piperidin-4-yl](methyl)amino}[1,3]thiazolo[4,5-c]pyridazin-3-yl)-5-(1H-pyrazol-4-yl)phenol] showed a pIC50 of at least 7.00.

Broadly, the pIC50 is the IC50 on a negative log10 scale, so that one unit is a factor of ten. A higher pIC50 goes with a small IC50.
